US20060069132A1, “Azolecarboxamide herbicides” (priority 2004, published 2006)

Columns and labels:
Assay in all cases: Test E pre-/postemergence herbicide test
Russian thistle = type: in vivo, Salsola kali; conditions: Preemergence
From the text: (§1) Seeds of plant species selected from bipinnate beggarticks (Bidens bipinnata L.), hairy beggarticks (Bidens radiata Thuill.), bermudagrass (Cynodon dactylon (L.) Pers.), Surinam grass (Urochloa decumbens (Staph) R. D. Webster, previously named Brachiaria decumbens Stapf), large crabgrass (Digitaria sanguinalis (L.) Scop.), green foxtail (Setaria viridis (L.) P. Beauv.), goosegrass (Eleusine indica (L.) Gaertn.), johnsongrass (Sorghum halepense (L.) Pers.), kochia (Kochia scoparia (L.) Schrad.), pitted morningglory (Ipomoea lacunosa L.), purple nutsedge (Cyperus rotundus L.), common ragweed (Ambrosia elatior L.), mustard (Brassica nigra (L.) W. D. J. Koch), guineagrass (Panicum maximum Jacq.), dallisgrass (Paspalum dilatatum Poir.), barnyardgrass (Echinochloa crus-galli (L). P. Beauv.), southern sandbur (Cenchrus echinatus L.), common sowthistle (Sonchus oleraceous L.), prickly sida (Sida spinosa L.), Italian ryegrass (Lolium multiflorum Lam.), common purslane (Portulaca oleracea L.), broadleaf signalgrass (Brachiaria platyphylla (Griseb.) Nash), common groundsel (Senecio vulgaris L.), common chickweed (Stellaria media (L.) Vill/Cyr.), tropical spiderwort (Commelina benghalensis L.), annual bluegrass (Poa annua L.), downy bromegrass (Bromus tectorum L.), itchgrass (Rottboellia cochinchinensis (L.) L.f.), quackgrass (Elytrigia repens (L.) Nevski), Canada horseweed (Erigeron Canadensis L.), field bindweed (Convolvulus arvensis L.), spotted spurge (Euphorbia maculata L.), common mallow (Malva sylvestris (=s silvestris) L.), and Russian thistle (Salsola kali L. ssp. Ruthenica (Iljin) Soo) were planted and treated preemergence with test chemicals formulated in a non-phytotoxic solvent mixture which included a surfactant.
(§2) At the same time, plants selected from these weed species were treated with postemergence applications of some of the test chemicals formulated in the same manner. Plants ranged in height from 2 to 18 cm (1- to 4-leaf stage) for postemergence treatments. Treated plants and controls were maintained in a greenhouse for 12 to 14 days, after which time all species were compared to controls and visually evaluated. Plant response ratings, summarized in Table E, are based on a scale of 0 to 100 where 0 is no effect and 100 is complete control. A dash (-) response means no test result.

common groundsel = type: in vivo, Senecio vulgaris
From the text: as §1, §2

goosegrass = type: in vivo, Eleusine indica
From the text: as §1, §2

quackgrass = type: in vivo, Elytrigia repens
From the text: as §1, §2

large crabgrass = type: in vivo, Digitaria sanguinalis
From the text: as §1, §2

common ragweed = type: in vivo, Ambrosia elatior
From the text: as §1, §2

annual bluegrass = type: in vivo, Poa annua
From the text: as §1, §2

bermudagrass = type: in vivo, Cynodon dactylon
From the text: as §1, §2

barnyardgrass = type: in vivo, Echinochloa crus-galli
From the text: as §1, §2

green foxtail = type: in vivo, Setaria viridis
From the text: as §1, §2

common purslane = type: in vivo, Portulaca oleracea
From the text: as §1, §2

mustard = type: in vivo, Brassica nigra
From the text: as §1, §2

johnsongrass = type: in vivo, Sorghum halepense
From the text: as §1, §2

common sowthistle = type: in vivo, Sonchus oleraceous
From the text: as §1, §2

downy bromegrass = type: in vivo, Bromus tectorum
From the text: as §1, §2

Surinam grass = type: in vivo, Urochloa decumbens
From the text: as §1, §2

[1] = Postemergence, 500 g ai/ha, scale 0 to 100
[2] = Postemergence, 250 g ai/ha, scale 0 to 100
[3] = Preemergence, 62 g ai/ha, scale 0 to 100
[4] = Preemergence, 125 g ai/ha, scale 0 (no effect) to 100 (complete control)
[5] = Preemergence, 500 g ai/ha, scale 0 (no effect) to 100 (complete control)
[6] = postemergence, 125 g ai/ha, scale 0 to 100
[7] = postemergence, 62 g ai/ha, scale 0 to 100
[8] = Preemergence, 250 g ai/ha, scale 0 (no effect) to 100 (complete control)

CCn1nc(C(C)(C)C)cc1C(=O)Nc1cc(C(=O)N(C)C)ccc1F [Compound 6, N-[5-[(dimethylamino)carbonyl]-2-fluorophenyl]-3-(1,1-dimethylethyl)-1-ethyl-1H-pyrazole-5-carboxamide]
75: Plant response rating, Crabgrass, Large (large crabgrass; [7]) | Plant response rating, Ragweed (common ragweed; [7]) | Plant response rating, Purslane (common purslane; [7]) | Plant response rating, Sowthistle (common sowthistle; [7]) | Plant response rating, Surinam Grass (Surinam grass; [7])
70: Plant response rating, Thistle (Russian thistle; 125 g ai/ha, scale 0 to 100) | Plant response rating, Thistle (Russian thistle; 250 g ai/ha, scale 0 (no effect) to 100 (complete control))
50: Plant response rating, Thistle (Russian thistle; 62 g ai/ha, scale 0 to 100) | Plant response rating, Ragweed (common ragweed; [3])
100: Plant response rating, Groundsel (common groundsel; [1]) | Plant response rating, Groundsel (common groundsel; [2]) | Plant response rating, Groundsel (common groundsel; [3]) | Plant response rating, Groundsel (common groundsel; [4]) | Plant response rating, Groundsel (common groundsel; [5]) | Plant response rating, Goosegrass (goosegrass; [5]) | Plant response rating, Quackgrass (quackgrass; [4]) | Plant response rating, Quackgrass (quackgrass; [5]) | Plant response rating, Crabgrass, Large (large crabgrass; [5]) | Plant response rating, Bluegrass (annual bluegrass; [3]) | Plant response rating, Bluegrass (annual bluegrass; [4]) | Plant response rating, Bluegrass (annual bluegrass; [5]) | Plant response rating, Bermudagrass (bermudagrass; [5]) | Plant response rating, Barnyardgrass (barnyardgrass; [5]) | Plant response rating, Foxtail, Green (green foxtail; [5]) | Plant response rating, Purslane (common purslane; [1]) | Plant response rating, Purslane (common purslane; [2]) | Plant response rating, Purslane (common purslane; [3]) | Plant response rating, Purslane (common purslane; [4]) | Plant response rating, Purslane (common purslane; [8]) | Plant response rating, Purslane (common purslane; [5]) | Plant response rating, Black Mustard (mustard; [1]) | Plant response rating, Black Mustard (mustard; [2]) | Plant response rating, Black Mustard (mustard; [3]) | Plant response rating, Black Mustard (mustard; [4]) | Plant response rating, Black Mustard (mustard; [8]) | Plant response rating, Black Mustard (mustard; [5]) | Plant response rating, Black Mustard (mustard; [6]) | Plant response rating, Johnsongrass (johnsongrass; [5]) | Plant response rating, Sowthistle (common sowthistle; [1]) | Plant response rating, Sowthistle (common sowthistle; [2]) | Plant response rating, Sowthistle (common sowthistle; [8]) | Plant response rating, Sowthistle (common sowthistle; [5]) | Plant response rating, Bromegrass, Downy (downy bromegrass; [1]) | Plant response rating, Bromegrass, Downy (downy bromegrass; [2]) | Plant response rating, Bromegrass, Downy (downy bromegrass; [5]) | Plant response rating, Surinam Grass (Surinam grass; [5])
85: Plant response rating, Goosegrass (goosegrass; [3]) | Plant response rating, Surinam Grass (Surinam grass; [3])
95: Plant response rating, Groundsel (common groundsel; [6]) | Plant response rating, Goosegrass (goosegrass; [4]) | Plant response rating, Quackgrass (quackgrass; [2]) | Plant response rating, Quackgrass (quackgrass; [3]) | Plant response rating, Ragweed (common ragweed; [1]) | Plant response rating, Ragweed (common ragweed; [2]) | Plant response rating, Ragweed (common ragweed; [5]) | Plant response rating, Bermudagrass (bermudagrass; [4]) | Plant response rating, Bermudagrass (bermudagrass; [8]) | Plant response rating, Barnyardgrass (barnyardgrass; [2]) | Plant response rating, Barnyardgrass (barnyardgrass; [4]) | Plant response rating, Barnyardgrass (barnyardgrass; [8]) | Plant response rating, Foxtail, Green (green foxtail; [3]) | Plant response rating, Foxtail, Green (green foxtail; [4]) | Plant response rating, Black Mustard (mustard; [7]) | Plant response rating, Johnsongrass (johnsongrass; [6]) | Plant response rating, Sowthistle (common sowthistle; [3]) | Plant response rating, Sowthistle (common sowthistle; [4]) | Plant response rating, Sowthistle (common sowthistle; [6]) | Plant response rating, Bromegrass, Downy (downy bromegrass; [4]) | Plant response rating, Bromegrass, Downy (downy bromegrass; [8]) | Plant response rating, Bromegrass, Downy (downy bromegrass; [7]) | Plant response rating, Surinam Grass (Surinam grass; [2])
35: Plant response rating, Bermudagrass (bermudagrass; [7])
90: Plant response rating, Goosegrass (goosegrass; [7]) | Plant response rating, Quackgrass (quackgrass; [6]) | Plant response rating, Crabgrass, Large (large crabgrass; [4]) | Plant response rating, Crabgrass, Large (large crabgrass; [6]) | Plant response rating, Ragweed (common ragweed; [6]) | Plant response rating, Bermudagrass (bermudagrass; [2]) | Plant response rating, Bermudagrass (bermudagrass; [3]) | Plant response rating, Barnyardgrass (barnyardgrass; [3]) | Plant response rating, Barnyardgrass (barnyardgrass; [6]) | Plant response rating, Foxtail, Green (green foxtail; [6]) | Plant response rating, Purslane (common purslane; [6]) | Plant response rating, Johnsongrass (johnsongrass; [3]) | Plant response rating, Johnsongrass (johnsongrass; [4]) | Plant response rating, Johnsongrass (johnsongrass; [8]) | Plant response rating, Johnsongrass (johnsongrass; [7]) | Plant response rating, Bromegrass, Downy (downy bromegrass; [3]) | Plant response rating, Surinam Grass (Surinam grass; Preemergence, 125 g ai/ha, scale 0 to 100) | Plant response rating, Surinam Grass (Surinam grass; [6])
98: Plant response rating, Goosegrass (goosegrass; [1]) | Plant response rating, Goosegrass (goosegrass; [2]) | Plant response rating, Goosegrass (goosegrass; [6]) | Plant response rating, Quackgrass (quackgrass; [1]) | Plant response rating, Crabgrass, Large (large crabgrass; [1]) | Plant response rating, Crabgrass, Large (large crabgrass; [2]) | Plant response rating, Bluegrass (annual bluegrass; [1]) | Plant response rating, Bluegrass (annual bluegrass; [2]) | Plant response rating, Bluegrass (annual bluegrass; [6]) | Plant response rating, Bluegrass (annual bluegrass; [7]) | Plant response rating, Bermudagrass (bermudagrass; [1]) | Plant response rating, Barnyardgrass (barnyardgrass; [1]) | Plant response rating, Foxtail, Green (green foxtail; [1]) | Plant response rating, Foxtail, Green (green foxtail; [2]) | Plant response rating, Johnsongrass (johnsongrass; [1]) | Plant response rating, Johnsongrass (johnsongrass; [2]) | Plant response rating, Bromegrass, Downy (downy bromegrass; [6]) | Plant response rating, Surinam Grass (Surinam grass; [1])
20: Plant response rating, Groundsel (common groundsel; [7])
80: Plant response rating, Thistle (Russian thistle; 500 g ai/ha, scale 0 (no effect) to 100 (complete control)) | Plant response rating, Quackgrass (quackgrass; [7]) | Plant response rating, Crabgrass, Large (large crabgrass; [3]) | Plant response rating, Ragweed (common ragweed; [4]) | Plant response rating, Bermudagrass (bermudagrass; [6]) | Plant response rating, Barnyardgrass (barnyardgrass; [7]) | Plant response rating, Foxtail, Green (green foxtail; [7])
